Measurements: patent US7897620B2, “Methods of using anti-inflammatory compounds” (Cambridge Enterprise Limited, priority 2007, dated 2011)
Marks after values point to notes of the source that are not given here.

Tests used:
[1] = Identification of the primary metabolites in pooled 24 h urine (LC-MS-MS full scan); format: in vivo; conditions: rat, single oral dose 3 mg/kg in 1% CMC, qualitative
Description: Urine was collected from rats exposed to a single oral dose (3 mg/kg in 1% CMC) of each compound over a 24 hour period in metabolic cages. The pooled urine sample was then subjected to full scan mass spectral analysis, using the same LC-MS conditions as described in example 1 above. Further MS-MS analysis of the product ions was then performed, and likely fragmentations/re-arrangements assigned from the publicly available Metabolite ID database.
For the major metabolites, the assigned structures were confirmed by synthesis of authentic samples, using methods well known in the art, which were subject to LC-MS-MS analysis under the same conditions as the urine samples.
Note that metabolite ID studies provide only qualitative estimates of the relative amounts of the different metabolites present, and separately validated assays with appropriate internal standards would be required to quantitate each metabolite species.
The detected metabolites, in rank order of concentration detected are shown in FIG. 2 for the five compounds analysed. It is important to note that the methodology used here is not necessarily exhaustive, and further (particularly minor) metabolites may also be present which were below the detection limits for the methods applied here. As a general rule, it can be assumed that metabolites representing 10% or more of the injected dose will be detected (though not necessarily structurally identified) by the methods used here).

[2] = test system: S. Typhinurium (TA 102, TA98 and TA 100); assay: AMES test, revertant colony formation; format: cell-based; conditions: for Revertant colony formation TA98 + S9: TA98 with S9, top dose 5 mg/ml; for Revertant colony formation TA98: TA98 without S9, top dose 5 mg/ml; for Revertant colony formation TA100 + S9: TA100 with S9 rat liver microsomal system, top dose 5 mg/ml; for Revertant colony formation TA100: TA100 without S9, top dose 5 mg/ml; for Revertant colony formation TA102 + S9: TA102 with S9, top dose 5 mg/ml; for Revertant colony formation TA102: TA102 without S9, top dose 5 mg/ml
Description: The five compounds were subjected to a standard AMES test to assess likely genotoxicity. Three His-auxotroph strains of S. Typhinurium (TA 102, TA98 and TA 100) were treated with each of the compounds at 5 concentrations (up to 5 mg/ml) in the presence and absence of S9 rat liver microsomal metabolising system. The number of revertant colonies was then determined by plating on trace-His minimal media.

[3] = test system: target receptor (site of specific interaction of BN83250) (Homo sapiens); assay: Competition for specific binding of [3H]-BN83250 to human myelomonocytic cell line; conditions: competition binding curve, non-linear modelling
Sequence of target receptor (site of specific interaction of BN83250) (Homo sapiens) (P30874 whole entry): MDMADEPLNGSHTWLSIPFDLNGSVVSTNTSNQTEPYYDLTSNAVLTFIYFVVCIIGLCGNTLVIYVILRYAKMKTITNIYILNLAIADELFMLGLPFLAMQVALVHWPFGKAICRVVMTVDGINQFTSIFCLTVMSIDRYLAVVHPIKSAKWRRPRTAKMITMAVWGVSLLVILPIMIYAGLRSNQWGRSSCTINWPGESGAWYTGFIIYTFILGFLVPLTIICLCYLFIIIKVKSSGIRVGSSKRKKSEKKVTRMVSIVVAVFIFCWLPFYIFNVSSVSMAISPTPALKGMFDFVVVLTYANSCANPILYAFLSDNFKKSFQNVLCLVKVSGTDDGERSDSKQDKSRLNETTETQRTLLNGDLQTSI
Description: The general pharmacology of the five compounds was assessed, both against the specific target receptor, and against a wide variety of other receptors, many related in structure to the target receptor. Specific binding to the target receptor was assessed by competition for the binding of [^3H]-BN83250 (BN83250 is (S)-3-(2′,2′-dimethyldodecanoylamino)-caprolactam; Fox et al. J Med Chem. […]; 48(3):867-74; an agent known to bind to the same target receptor as the lactam BSCIs disclosed here). Binding to non-target receptors was assessed by competition for the binding of various specific radioligands for other receptors which are well known in the art.
For specific binding the human myelomonocytic cell line was resuspended in binding buffer (20 mM HEPES, 150 mM NaCl, pH 7.4; 10^6 cells per reaction) at 4° C. in the presence of 10 nM [^3]-BN83250 (from 1 μM stock in 100% ethanol; 30 Ci/mmol) and various competitors (1% DMSO maximum vehicle concentration). Reactions were incubated for 2 hours on ice, then filtered through GF/C filters pre-soaked in 0.5% polyethyeneimine. Unbound material was washed away with 5×5 ml ice cold washing buffer (20 mM HEPES, 150 mM NaCl, pH 7.4) under a slow vacuum.
Competition for the specific [^3H]-BN83250 with compounds (I′), (II) and (V) was then determined at various concentrations from 1 μM to 10 μM. Compounds (III) and (IV) were not examined in these experiments.
Non-linear modelling was then applied to the competition binding curves for the various compounds, in order to compare their properties as agents binding to the target receptor (defined as the site of specific interaction of BN83250).

SMILES: O=C1NCCCC[C@@H]1NC(=O)C12CC3CC(CC(C3)C1)C2 [(II), 3-(adamantane-1-carbonylamino)-caprolactam]
- major metabolite / route of metabolism detected in urine [1]: cytochrome P450-mediated hydroxylation
- Revertant colony formation TA98 + S9 [2]: 0.60*
- Revertant colony formation TA98 [2]: 0.58*
- Revertant colony formation TA100 + S9 [2]: 0.73
- Revertant colony formation TA100 [2]: 0.59*
- Revertant colony formation TA102 + S9 [2]: 0.93
- Revertant colony formation TA102 [2]: 0.50*
- Hill slope [3]: −0.5

SMILES: CC(C)(C)S(=O)(=O)N[C@H]1CCCCNC1=O [(IV), 3-(1′,1′-dimethylethylsulfonylamino)-caprolactam]
- major metabolite / route of metabolism detected in urine [1]: the major metabolite could not be identified
- Revertant colony formation TA98 + S9 [2]: 0.90
- Revertant colony formation TA98 [2]: 0.82
- Revertant colony formation TA100 + S9 [2]: 0.90
- Revertant colony formation TA100 [2]: 0.89
- Revertant colony formation TA102 + S9 [2]: 0.88
- Revertant colony formation TA102 [2]: 0.85

SMILES: O=C1NCCCC[C@@H]1NC(=O)C12CC3CC(CC(O)(C3)C1)C2 [(V), 3-(3′-hydroxyadamantyl-1-carbonylamino)-caprolactam]
- major metabolite / route of metabolism detected in urine [1]: the glucuronidated compound was the major metabolite
- Revertant colony formation TA98 + S9 [2]: 0.91
- Revertant colony formation TA98 [2]: 0.96
- Revertant colony formation TA100 + S9 [2]: 0.88
- Revertant colony formation TA100 [2]: 0.78
- Revertant colony formation TA102 + S9 [2]: 1.09
- Revertant colony formation TA102 [2]: 0.93
- Hill slope [3]: −0.5

SMILES: CC(C)(C)C(=O)N[C@H]1CCCNC1=O [Compound (I′), 3-(2′,2′-dimethylpropanoylamino)-tetrahydropyridin-2-one]
- major metabolite / route of metabolism detected in urine [1]: no significant metabolites of (I′) were detected in urine
- Revertant colony formation TA98 + S9 [2]: 1.23
- Revertant colony formation TA98 [2]: 2.00**
- Revertant colony formation TA100 + S9 [2]: 0.95
- Revertant colony formation TA100 [2]: 0.97
- Revertant colony formation TA102 + S9 [2]: 0.93
- Revertant colony formation TA102 [2]: 0.82
- Hill slope [3]: −1.0
